The values that follow come from patent US20240383893A1, “Hydroxamic Acid Compound Having ENPP1 Inhibitory Activity and Use Thereof” (Haihe Biopharma Co., Ltd., priority 2021, published 2024).

Bounds are passed on as bounds.

For the first series, the target named is ENPP1 (hENPP1-ECD-His) (Homo sapiens (Human), UniProt P22413).
ENPP1 (hENPP1-ECD-His), sequence (P22413 98-925): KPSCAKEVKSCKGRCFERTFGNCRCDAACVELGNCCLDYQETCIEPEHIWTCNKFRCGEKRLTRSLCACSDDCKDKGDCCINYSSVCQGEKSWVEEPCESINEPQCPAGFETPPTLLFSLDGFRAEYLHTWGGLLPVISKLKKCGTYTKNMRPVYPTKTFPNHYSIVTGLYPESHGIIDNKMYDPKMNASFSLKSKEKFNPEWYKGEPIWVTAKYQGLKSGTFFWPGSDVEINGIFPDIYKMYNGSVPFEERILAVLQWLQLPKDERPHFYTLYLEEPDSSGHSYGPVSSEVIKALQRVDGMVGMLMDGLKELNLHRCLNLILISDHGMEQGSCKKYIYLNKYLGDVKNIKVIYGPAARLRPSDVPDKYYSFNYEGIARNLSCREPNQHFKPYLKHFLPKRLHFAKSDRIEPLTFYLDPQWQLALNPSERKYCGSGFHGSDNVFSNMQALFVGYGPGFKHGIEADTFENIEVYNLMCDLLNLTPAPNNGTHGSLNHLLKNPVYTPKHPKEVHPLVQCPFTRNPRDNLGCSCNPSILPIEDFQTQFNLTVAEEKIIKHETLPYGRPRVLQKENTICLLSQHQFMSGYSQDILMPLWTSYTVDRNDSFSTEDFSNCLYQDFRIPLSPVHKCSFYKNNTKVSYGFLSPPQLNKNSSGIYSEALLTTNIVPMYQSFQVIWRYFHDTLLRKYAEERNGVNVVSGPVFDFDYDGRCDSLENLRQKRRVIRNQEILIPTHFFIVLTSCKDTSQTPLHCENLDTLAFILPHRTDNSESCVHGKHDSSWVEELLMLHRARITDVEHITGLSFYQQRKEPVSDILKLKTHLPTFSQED
Test: not given
Conditions: not given
Usually IC50 stands for the midpoint of a concentration-inhibition curve. Consider `COc1ccc2c(NC3CCN(C(C)(C)C(=O)NO)CC3)ccnc2n1` [Compound 117], for which half-maximal inhibition (IC50) required 2.1 nM. The same measure, in the same setting: in the case of `COc1ccc2c(Nc3cnn(C(C)(C)C(=O)NO)c3)ccnc2n1` [Compound 118] it was 1.5 nM; in that of `COc1cc2nccc(Oc3ccc(C4(C(=O)NO)CCCC4)cc3)c2cn1` [Compound 123], 1.2 nM. On the same count and under the same terms, in the case of `CCC(CC)(C(=O)NO)c1ccc(Oc2ccnc3nc(OC)ccc23)cc1` [Compound 124] it was 1.6 nM; in that of `COc1cc(Nc2ncnc3c2cnn3C)ccc1C(C)(C)C(=O)NO` [Compound 126], 21 nM. For `COc1ccc2c(Nc3ccc(C(C)(C)C(=O)NO)nc3)ccnc2n1` [Compound 127], 1.6 nM corresponded to half-maximal inhibition (IC50). The molecule `Cn1ncc2c(Oc3ccc(C4(C(=O)NO)CCCC4)cc3)ccnc21` [Compound 129] registered an IC50 of 5.7 nM. Molecule `COc1ccc2c(Oc3ccc(C(CC(C)C)C(=O)NO)cc3)ccnc2n1` (stereo not shown) [Compound 132] gave an IC50 of 6.6 nM. In the case of `COc1ccc2c(Oc3cc(F)c(C4(C(=O)NO)CCOCC4)cc3F)ccnc2n1` [Compound 134], the midpoint of inhibition, the IC50, lay at 3.3 nM. `COc1ccc2c(Oc3ccc(C4(C(=O)NO)CCOCC4)c(Cl)c3)ccnc2n1` [Compound 135] showed a 50% inhibitory concentration (IC50) of 7.1 nM. Regarding `COc1ccc2c(Oc3ccc(C4(C(=O)NO)CCOCC4)cc3F)ccnc2n1` [Compound 136], the IC50 came out at 4.4 nM. Still for that read-out and setting: in the case of `COc1ccc2c(Oc3c(F)cc(C4(C(=O)NO)CCOCC4)cc3F)ccnc2n1` [Compound 137] it was 2.6 nM; in that of `COc1ccc2c(Oc3ccc(C4(C(=O)NO)CCOCC4)cc3Cl)ccnc2n1` [Compound 138], 6 nM; in that of `COc1ccc2c(Oc3ccc(C4(C(=O)NO)CCOCC4)c(C)c3)ccnc2n1` [Compound 139], 2.3 nM. `COc1ccc2c(Cc3ccc(C4(C(=O)NO)CCCC4)cc3)ccnc2n1` [Compound 141, N-hydroxy-1-(4-((7-methoxy-1,8-naphthylidin-4-yl)methyl)phenyl)cyclopentane-1-formamide] had an IC50 of 1.4 nM. `COc1ccc2c(NC3CCC(CC(=O)NO)C3)ccnc2n1` (stereo not shown) [Compound 142] came in with a concentration for half-maximal inhibition (IC50) of 13 nM. Molecule `COc1ccc2c(NC3CCN(CC(=O)NO)C3)ccnc2n1` (stereo not shown) [Compound 143] yielded a concentration for half-maximal inhibition (IC50) of 4.7 nM.

`COc1ccc2c(NC3CCN(C(C)(C)C(=O)NO)C3)ccnc2n1` (stereo not shown) [Compound 144]: the IC50 amounted to 259 nM.

In turn, `COc1ccc2c(Oc3ccc4c(c3)CCCC4C(=O)NO)ccnc2n1` (stereo not shown) [Compound 145] displayed a 50% inhibitory concentration (IC50) of 4.2 nM. Take `COc1ccc2c(Oc3ccc(C4(C(=O)NO)CCN(C)CC4)cc3)ccnc2n1` [Compound 146]: the IC50 stood at 13 nM. `COc1ccc2c(Nc3ccc(C(C)(C)C(=O)NO)cc3)cnnc2c1` [Compound 147] returned a half-maximal inhibitory concentration (IC50) of 1.5 nM. Same read-out and setting: for `COc1ccc2c(Oc3ccc(C(N)C(=O)NO)cc3)ccnc2n1` (stereo not shown) [Compound 148] the value was 2.8 nM.

`COc1ccc2c(Oc3ccc(C(C(=O)NO)C(C)C)c(F)c3)ccnc2n1` (stereo not shown) [Compound 150] displayed a half-inhibitory concentration (IC50) of 7.2 nM. `COc1ccc2c(Nc3ncc(CC(=O)NO)cn3)ccnc2n1` [Compound 151] gave an IC50 of 70 nM. Molecule `COc1ccc2c(CN3CCC(C(C)(C)C(=O)NO)C3)ccnc2n1` (stereo not shown) [Compound 157] gave a half-inhibitory concentration (IC50) of 81 nM. In turn, `COc1ccc2c(N3CCc4cc(C5(C(=O)NO)CCOCC5)ccc43)ccnc2n1` [Compound 158] displayed an IC50 of 9.9 nM. Regarding `COc1ccc2c(Nc3ccc(C(C(=O)NO)C(C)C)c(F)c3)ccnc2n1` (stereo not shown) [Compound 160], it took 15 nM to reach half-maximal inhibition (IC50).

The molecule `COc1ccc2c(Nc3ccc(C(C(=O)NO)C(C)C)cc3)ccnc2n1` (stereo not shown) [Compound 161] registered a concentration for half-maximal inhibition (IC50) of 16 nM. `COc1ccc2c(Nc3ccc(C4(C(=O)NO)CCOCC4)c(F)c3)ccnc2n1` [Compound 162] gave an IC50 of 3 nM. On the same count and under the same terms, in the case of `CCn1ncc2c(Nc3ccc(C4(C(=O)NO)CCOCC4)cc3)ccnc21` [Compound 163] it was 2.9 nM; in that of `COc1ccc2c(Nc3ccc(C4(C(=O)NO)CCOCC4)cc3)ccnc2c1` [Compound 164], 3.4 nM. Turning to `COc1ccc2c(Nc3cnn(C(C(=O)NO)C(C)C)c3)ccnc2n1` (stereo not shown) [Compound 167], 103 nM corresponded to half-maximal inhibition (IC50).

`COc1ccc2c(Oc3ccc(C(C(=O)NO)C4CCCC4)cc3)ccnc2n1` (stereo not shown) [Compound 170] had a half-inhibitory concentration (IC50) of 18 nM. For the molecule `COc1ccc2c(Cc3ccc(C4(C(=O)NO)CCOCC4)cc3)ccnc2n1` [Compound 171], the 50% inhibitory concentration (IC50) was 1.8 nM. `COc1ccc2c(Oc3ccc(C(C)(C(=O)NO)C4CCOCC4)cc3)ccnc2n1` (stereo not shown) [Compound 172] came in with an IC50 of 3.1 nM. The same measure, in the same setting: in the case of `COc1ccc2c(Oc3ccc(C4(C(=O)NO)CCN(Cc5ccccc5)CC4)cc3)ccnc2n1` [Compound 173] it was 1.6 nM. In turn, `COc1ccc2c(Nc3cnn(C4(C(=O)NO)CCOCC4)c3)ccnc2n1` [Compound 174] had an IC50 of 2.1 nM. Same read-out and setting: for `COc1ccc2c(Oc3ccc(C4(C(=O)NO)CCCOCC4)cc3)ccnc2n1` (stereo not shown) [Compound 175] the value was 1.9 nM; for `COc1ccc2c(Oc3ccc(C4(C(=O)NO)CC5CCC(C4)O5)cc3)ccnc2n1` (stereo not shown) [Compound 176], 2.9 nM; for `COc1cc2nccc(Nc3ccc(C(C(=O)NO)C(C)C)cc3)c2cn1` (stereo not shown) [Compound 177], 7.9 nM. Molecule `COc1cc2nccc(Nc3ccc(C4(C(=O)NO)CCOCC4)cc3F)c2cn1` [Compound 178] showed an IC50 of 1.2 nM.

In turn, `COc1cc2nccc(Nc3ccc(C(CC(C)C)C(=O)NO)cc3)c2cn1` (stereo not shown) [Compound 179] returned an IC50 of 1 nM. In the case of `COc1ccc2c(Nc3ccc(C4(C(=O)NO)CCOCC4)cc3)c(C#N)cnc2c1` [Compound 180], the midpoint of inhibition, the IC50, lay at 1.6 nM. For `COc1cc2nccc(Nc3ccc(C4(C(=O)NO)CCOCC4)c(F)c3)c2cn1` [Compound 181], half-maximal inhibition (IC50) required 1.9 nM. In turn, `COc1ccc2c(Nc3ccc(C(CC(C)C)C(=O)NO)cc3)ccnc2n1` (stereo not shown) [Compound 182] showed an IC50 of 1.7 nM.

Turning to `COc1cc2nccc(Nc3c(F)cc(C(CC(C)C)C(=O)NO)cc3F)c2cn1` (stereo not shown) [Compound 184], the concentration for half-maximal inhibition (IC50) amounted to 2.2 nM. In turn, `COc1cc2nccc(Nc3c(F)cc(C(C(=O)NO)C(C)C)cc3F)c2cn1` (stereo not shown) [Compound 185] showed an IC50 of 3.6 nM. The molecule `COc1cc2nccc(Nc3cc(F)c(C(CC(C)C)C(=O)NO)c(F)c3)c2cn1` (stereo not shown) [Compound 186] returned an IC50 of 3.8 nM. Consider `COc1cc2ncnc(Nc3ccc(C(C(=O)NO)C(C)C)cc3)c2cn1` (stereo not shown) [Compound 187], for which the midpoint of inhibition, the IC50, lay at 27 nM. For `COc1cc2ncnc(Nc3ccc(C(CC(C)C)C(=O)NO)cc3)c2cn1` (stereo not shown) [Compound 188], inhibition was half-maximal at 4.6 nM (IC50). In turn, `COc1cc2nccc(Nc3ccc(CC(=O)NO)c(F)c3)c2cn1` [Compound 189] registered a concentration for half-maximal inhibition (IC50) of 1.8 nM. On to `COc1cc2nccc(Nc3ccc(CC(=O)NO)cc3F)c2cn1` [Compound 190], for which the IC50 stood at 3.9 nM.

With `COc1cc2nccc(Nc3cc(F)c(C(C(=O)NO)C(C)C)c(F)c3)c2cn1` (stereo not shown) [Compound 191], it took 11 nM to reach half-maximal inhibition (IC50). On the same count and under the same terms, for `CCn1ncc2c(Nc3ccc(CC(=O)NO)cc3F)ccnc21` [Compound 192] the value was 1.4 nM; for `CCn1ncc2c(Nc3ccc(CC(=O)NO)c(F)c3)ccnc21` [Compound 193], 2.2 nM. Consider `Cc1noc2ncnc(Oc3ccc(C(C)(C)C(=O)NO)cc3)c12` [Compound 194, N-hydroxy-2-methyl-2-(4-((3-methylisoxazol[5,4-d]pyrimidin-4-yl)oxy)phenyl)propanamide], for which the IC50 was 284 nM. Same read-out and setting: in the case of `COc1ccc2c(Oc3ccc(N4CCC[C@H]4C(=O)NO)cc3)ccnc2n1` [Compound 196, (S)—N-hydroxy-1-(4-((7-methoxy-1,8-naphthylidin-4-yl)oxy)phenyl)pyrrolidin-2-formamide] it was 130 nM; in that of `Cn1ncc2c(Oc3ccc(C4(C(=O)NO)CCOCC4)c(Cl)c3)ccnc21` [Compound 197], 111 nM; in that of `COc1ccc2c(Oc3ccc([C@@H](C(=O)NO)C4CCOCC4)c(F)c3)ccnc2n1` [Compound 198], 61 nM. The same measure, in the same setting: for `COc1ccc2c(Oc3ccc(C(CC(C)C)C(=O)NO)c(F)c3)ccnc2n1` (stereo not shown) [Compound 201] the value was 11 nM; for `COc1ccc2c(N[C@H]3CCN(C(C)(C)C(=O)NO)C3)ccnc2n1` [Compound 202], 3.3 nM; for `COc1ccc2c(Oc3ccc4c(c3)CCCC4(C)C(=O)NO)ccnc2n1` (stereo not shown) [Compound 203], 1.8 nM.

Molecule `COc1ccc2c(N3CCc4cc(CC(=O)NO)ccc43)ccnc2n1` [Compound 204] had an IC50 of 24 nM. Turning to `COc1ccc2c(O[C@H]3CCN(C(C)(C)C(=O)NO)C3)ccnc2n1` [Compound 205], 39 nM corresponded to half-maximal inhibition (IC50). With `COc1ccc2c(Oc3ccc([C@H](C(=O)NO)C4CCOCC4)c(F)c3)ccnc2n1` [Compound 206], the 50% inhibitory concentration (IC50) worked out at 12 nM.

`Cn1ncc2c(Nc3ccc(C4(C(=O)NO)CCOCC4)cc3)ncnc21` [Compound 207] showed a 50% inhibitory concentration (IC50) of 9.3 nM.

Regarding `COc1ccc2c(Nc3ccc(CC(=O)NO)cc3)ncnc2n1` [Example 1, N-hydroxy-2-(4-((7-methoxypyridino[2,3-d]pyrimidin-4-yl)amino)phenyl)acetamide], the IC50 was determined as 1.8 nM. `COc1cc2nccc(Nc3ccc(CC(=O)NO)cc3)c2cc1OC` [Example A-1, reference compound] yielded an IC50 of 89 nM. `CONC(=O)C(C)(C)c1ccc(Oc2ccnc3cc(OC)c(OC)cc23)cc1` [Example A-2, reference compound] registered an IC50 of 3280 nM.

Tested on in a further series: not listed separately
Put plainly: Preliminary pharmacokinetic testing in ICR mice (gavage 5 mg/kg, intravenous 1 mg/kg). As to conditions: male, mouse, oral administration (5 mg/kg), plasma. Format: in vivo. As for the experimental part: 1. 6 healthy ICR mice, male, weighing 30-35 g, were randomly divided into 2 groups with 3 mice in each group. The tested compound was administered by gavage (5 mg/kg) and intravenous injection (1 mg/kg), respectively:
Feeding uniformly 4 hours after administration.
In general, AUC(0-t) refers to the area under the concentration-time curve up to a stated or last time point. `COc1ccc2c(Oc3ccc(CC(=O)NO)cc3)ccnc2n1` [Compound 2, N-hydroxy-2-(4-((7-methoxy-1,8-naphthylidin-4-yl)oxy)phenyl)acetamide]: the AUC(0-t) was found to be 619 ng·h/mL.

Staying with this series, now noted: male, mouse, plasma, po, 5 mg/kg, read-out: oral bioavailability.
By bioavailability is commonly meant the share of a dose that reaches the circulation, judged against a reference dose that is usually intravenous. Consider `COc1ccc2c(Oc3ccc(CC(=O)NO)cc3)ccnc2n1` [Compound 2, N-hydroxy-2-(4-((7-methoxy-1,8-naphthylidin-4-yl)oxy)phenyl)acetamide], for which the bioavailability was over 20%.

The same series, now with this note: oral administration (5 mg/kg), plasma.
Broadly, the Cmax is the maximum level reached in the sampled fluid or tissue. `COc1ccc2c(Oc3ccc(CC(=O)NO)cc3)ccnc2n1` [Compound 2, N-hydroxy-2-(4-((7-methoxy-1,8-naphthylidin-4-yl)oxy)phenyl)acetamide] had a peak concentration (Cmax) of 736 ng/mL and a T1/2 of 3.26 h.
